Values quoted from earlier work as cited in patent US20130309325A1, “COMPOSITION AND METHOD FOR PROMOTING JOINT AND BONE HEALTH” (VITAL ANIMAL HEALTH, LLC, priority 2012, published 2013).

Test system: young racing quarter horses
[1] = horses with increased plasma silicon concentrations

silicon
average race times [1]: faster average race times | distance covered before injury [1]: covered more distance before injury | strides completed before injury [1]: completed more strides before injury | incidence of bone related injuries (supplemental silicon, young racing quarter horses): decreased the incidence of bone related injuries
